Test results: patent US10626107B2, “Crystal form, salt type of substituted 2-hydro-pyrazole derivative and preparation method therefor” (CHIA TAI TIANQING PHARMACEUTICAL GROUP CO., LTD., priority 2016, dated 2020)
Where two headings read alike, the source gives them in different places.

How the values were obtained:
[1] = system: MCF-7 cells; test: Inhibition assay of the compound of formula (I) on the proliferation of MCF-7 cells (CellTiter-Glo); type: cell-based; conditions: Homo sapiens, MCF7, 144 h, 6 days
Procedure: (§1) RPMI 1640 medium, fetal bovine serum and penicillin/streptomycin as antibiotics were purchased from Promega (Madison, Wis.). The MCF-7 cell line and the MDA-MB-436 cell line were purchased from the European Collection of Authenticated Cell Cultures (ECACC). Envision Multilabel Plate Reader (PerkinElmer).
(§2) MCF-7 cells were seeded in a black 384-well plate with 45 μL of cell suspension (containing 200 MCF-7 cells) per well. The cell plate was placed in a carbon dioxide incubator for overnight culture.
(§3) The test compounds were diluted 3 times to the 10th concentration with Bravo, i.e., diluted from 10 μM to 0.508 nM, and a duplicate-well experiment was set. The medium was added to the middle plate in an amount of 49 μL per well. The gradient-diluted compounds were transferred in an amount of 1 μL per well to the middle plate according to the corresponding positions, and the mixture was mixed evenly and transferred to the cell plate in an amount of 5 μL per well. The cell plate was incubated in a carbon dioxide incubator for 6 days.
(§4) Promega CellTiter-Glo reagent was added to the cell plate in an amount of 25 μL per well, and incubated for 10 minutes at room temperature to stabilize the luminescence signal. Reading was performed using a PerkinElmer Envision Multilabel Plate Reader.

[2] = Solubility tests in different vehicles (HPLC); type: physicochemical; conditions: 26 °C, thermodynamic from solid, room temperature 25 to 27° C.
Procedure: Samples (about 2 mg) (if the sample was a salt, the required amount of the salt was calculated according to the salt factor in accordance with the criterion that the compound of formula (I) was 2 mg) were weighed respectively and added to a 1.5 mL glass vial. Different vehicles (1 mL) were then added respectively. The above-mentioned suspension was placed on a magnetic stirrer for stirring (room temperature 25 to 27° C.). After stirring for 24 hours, samples were taken. The samples were first centrifuged, and the supernatants were taken. After appropriate dilution according to the situation of the dissolution, the concentrations were determined by HPLC. The results were as follows:
Notes: • FaSSIF: to simulate the intestinal fluid in the small intestine of human in a hunger state before meal; • FeSSIF: to simulate the intestinal fluid in the small intestine of human in a full state after meal; • SGF: to simulate the gastric juice in the empty stomach of human in a hunger state

[3] = system: MDA-MB-436 cells; test: Inhibition assay of the compound of formula (I) on the proliferation of MDA-MB-436 cells (CellTiter-Glo); type: cell-based; conditions: Homo sapiens, 144 h, 6 days
Procedure: as §1
MDA-MB-436 cells were seeded in a black 384-well plate with 45 μL of cell suspension (containing 585 MDA-MB-436 cells) per well. The cell plate was placed in a carbon dioxide incubator for overnight culture.
as §3, §4

[4] = system: human breast cancer MCF-7 subcutaneous xenograft tumor; type: in vivo
Description: Cell line-derived xenograft (CDX) BALB/c nude mice that were female, 6- to 8-week old, weighed 20 g, and subcutaneously implanted with human tumor cell line derived from MCF-7 breast cancer patients were used. A total of 150 mice were needed, which were purchased from Beijing Vital River Laboratory Animal Technology Co., Ltd.
BALB/c nude mice that were female, 6- to 8-week old, and weighed approximately 20 g were used. The mice were maintained in separate ventilated cages (10 mice per cage) in a special pathogen-free environment. All the cages, bedding and water were disinfected prior to use. All the animals were free to access a standard certified commercial laboratory diet. A total of 150 mice were purchased from Beijing Vital River Laboratory Animal Technology Co., Ltd. for research. Each mouse was implanted subcutaneously with an estrogen tablets (0.18 mg/tablet, 60-day sustained release) in the left back. After 3 days, each mouse was implanted with tumor cells (10×10^6 in 0.2 mL of phosphate buffer) subcutaneously in the right back for tumor growth. Administration was started when the average tumor volume reached about 150 to 200 mm^3. The test compounds were orally administered daily, and the administration dosages were as shown in the above table. The tumor volumes were measured twice a week using a two-dimensional caliper. The volumes were expressed in cubic millimeters and calculated by the following formula: V=0.5 a×b^2, wherein a and b were the long diameter and short diameter of a tumor, respectively. The anti-tumor efficacy was determined by dividing the average increase of the tumor volumes of the animals treated with a compound by the average increase of the tumor volumes of the animals without being treated with the compound.

[5] = system: MCF-7 breast cancer cells; test: Inhibition assay of the A crystal form of WX_1 on MCF-7 breast cancer cell proliferation (CellTiter-Glo); type: cell-based; conditions: Homo sapiens, MCF7, 144 h; MCF-7 cells, 6 days
Procedure: RPMI 1640 medium, fetal bovine serum and penicillin/streptomycin as antibiotics were purchased from Promega (Madison, Wis.). The MCF-7 cell line was purchased from the European Collection of Authenticated Cell Cultures (ECACC). Envision MultiLabel Plate Reader (PerkinElmer).
as §2, §3
Promega CellTiter-Glo reagent was added to the cell plate in an amount of […] per well, and incubated for 10 minutes at room temperature to stabilize the luminescence signal. Reading was performed using a PerkinElmer Envision Multilabel Plate Reader.

[6] = system: human lung cancer LU-01-0393 subcutaneous xenograft tumor; test: In vivo drug efficacy study (II): human lung cancer LU-01-0393 subcutaneous xenograft tumor model; set-up: species or system BALB/c nude mice; conditions: 120.0 mg/kg PO QD × 3W
Description: Cell line-derived xenograft (CDX) BALB/c nude mice that were female, 6- to 8-week old, weighed 17 to 20 g, and subcutaneously implanted with human tumor cell line derived from LU-01-0393 lung cancer patient were used. A total of 72 mice were needed and were purchased from Shanghai Xipuer-Bikai Experimental Animal Co., Ltd. Human lung cancer LU-01-0393 tumor (i.e., non-small cell lung cancer) was originally derived from a clinical sample of a surgical resection. It was defined as passage PO after being inoculated to nude mice, and the tumor of passage PO was re-inoculated to nude mice and was then defined as passage P1, and so forth. Passage was performed in nude mice. LU-01-0393-FP5 was obtained from the transplantation after the recovery of P4. This study would use the tumor tissue of passage FP6.
BALB/c nude mice that were female, 6- to 8-week old, and weighed approximately 17 to 20 g were used. The mice were maintained in separate ventilated cages in a special pathogen-free environment. All the cages, bedding and water were disinfected prior to use. All the animals were free to access a standard certified commercial laboratory diet. A total of 72 mice purchased from Shanghai Xipuer-Bikai Experimental Animal Co., Ltd. were used for the study. The LU-01-0393 FP6 tumor tissue was cut to 20 to 30 mm^3 and inoculated to the right back of each mouse to wait for the tumor growth. When the average tumor volume reached about 171 mm^3, the mice were randomized into groups and administered. The test compounds were orally administered daily, and the administration dosages were as shown in the above table. The tumor diameters were measured twice a week using a two-dimensional caliper. The tumor volumes were calculated by the following formula: V=0.5 a×b^2, wherein a and b were the long diameter and the short diameter of a tumor, respectively. The anti-tumor efficacy was determined by dividing the average increase of the tumor volumes of the animals treated with a compound by the average increase of the tumor volumes of the animals without being treated with the compound.

Row | SMILES | IC50 [1] [µM] | solubility at 24 h ([2]; simulated gastric fluid, SGF, read-out: Solubility SGF) [mg/mL] | solubility at 24 h ([2]; FaSSIF, read-out: Solubility FaSSIF) [mg/mL] | solubility at 24 h ([2]; FeSSIF, read-out: Solubility FeSSIF) [mg/mL] | solubility at 24 h ([2]; water, water, H2O, read-out: Solubility H2O) [mg/mL] | IC50 [3] [µM] | Tumor volume Day 0 ([4]; 25.0 mg/kg PO QD × 3W) [mm^3] | Tumor volume Day 7 ([4]; 25.0 mg/kg PO QD × 3W) [mm^3] | IC50 [5] [µM] | Tumor volume Day 0 [6] [mm^3] | Tumor volume Day 7 [6] [mm^3] | Tumor volume Day 14 [6] [mm^3] | Tumor volume Day 21 [6] [mm^3] | Tumor volume Day 14 ([4]; 25.0 mg/kg PO QD × 3W) [mm^3] | Tumor volume Day 20 ([4]; 25.0 mg/kg PO QD × 3W) [mm^3] | Tumor volume Day 0 ([4]; 50.0 mg/kg PO QD × 3W) [mm^3] | Tumor volume Day 7 ([4]; 50.0 mg/kg PO QD × 3W) [mm^3] | Tumor volume Day 14 ([4]; 50.0 mg/kg PO QD × 3W) [mm^3] | Tumor volume Day 20 ([4]; 50.0 mg/kg PO QD × 3W) [mm^3] | tolerability ([4]; mouse, in vivo)
1 | CC(C)c1c2cc(-c3nc(Nc4ccc(N5CCNCC5)cn4)ncc3F)ccc2nn1C [compound of formula (I)] | 0.0321 | > 2 | 0.013 | 1.6 | 0.01 | 0.328 |  |  |  |  |  |  |  |  |  |  |  |  |  | 
2 | CCN1CCN(Cc2ccc(Nc3ncc(F)c(-c4ccc5nn(C)c(C(C)C)c5c4)n3)nc2)CC1 [compound of formula (a), reference compound] | 0.24 |  |  |  |  | 2.1 |  |  |  |  |  |  |  |  |  |  |  |  |  | 
3 | CCN1CCN(Cc2ccc(Nc3ncc(F)c(-c4cc(F)c5nc(C)n(C(C)C)c5c4)n3)nc2)CC1 [LY2835219, Abemaciclib] |  |  |  |  |  |  | 153 | 155 | 0.185 | 172 ± 23 | 228 ± 26 | 255 ± 30 | 272 ± 36 |  |  |  |  |  |  | 
4 | CC(=O)c1c(C)c2cnc(Nc3ccc(N4CCNCC4)cn3)nc2n(C2CCCC2)c1=O [Palbociclib] |  |  |  |  |  |  | 153 | 203 | 0.0882 | 170 ± 24 | 261 ± 38 | 266 ± 41 | 251 ± 34 | 252 | 222 | 153 | 180 | 197 | 137 | intolerable
